Test results: the NIST ThermoML archive (doi:10.1021/je100300s)

Experiment: xn = mol fraction of the nth substance listed
Details: 101 kPa, Liquid

CC(O)CN (centres undefined) [1-amino-2-propanol] + O
Details | mass density [kg/m3] | viscosity [mPa·s]
298.15 K, x1 = 0.05 | 999.9 | 2.11
298.15 K, x1 = 0.07 | 1000.35 | 2.696
298.15 K, x1 = 0.0986 | 1002.43 | 3.902
298.15 K, x1 = 0.1993 | 1004.57 | 9.7
298.15 K, x1 = 0.3003 | 999.91 | 15.54
298.15 K, x1 = 0.3955 | 992.94 | 22.19
298.15 K, x1 = 0.4929 | 985.82 | 26.76
298.15 K, x1 = 0.5995 | 978.02 | 29.01
298.15 K, x1 = 0.7002 | 971.66 | 29.99
298.15 K, x1 = 0.8006 | 965.96 | 30.4
298.15 K, x1 = 0.8992 | 961.08 | 28.55
298.15 K, x1 = 1 | 956.51 | 26.68
303.15 K, x1 = 0.05 | 997.07 | 1.856
303.15 K, x1 = 0.07 | 998.1 | 2.282
303.15 K, x1 = 0.0986 | 999.83 | 3.248
303.15 K, x1 = 0.1993 | 1001.03 | 7.671
303.15 K, x1 = 0.3003 | 996.08 | 12.04
303.15 K, x1 = 0.3955 | 989.08 | 16.82
303.15 K, x1 = 0.4929 | 981.92 | 19.5
303.15 K, x1 = 0.5995 | 974.2 | 21.38
303.15 K, x1 = 0.7002 | 967.74 | 22.78
303.15 K, x1 = 0.8006 | 962.01 | 22.97
303.15 K, x1 = 0.8992 | 957.12 | 22.19
303.15 K, x1 = 1 | 952.52 | 20.31
313.15 K, x1 = 0.05 | 992.68 | 1.431
313.15 K, x1 = 0.07 | 993.09 | 1.785
313.15 K, x1 = 0.0986 | 994.25 | 2.359
313.15 K, x1 = 0.1993 | 993.72 | 5.102
313.15 K, x1 = 0.3003 | 988.29 | 7.551
313.15 K, x1 = 0.3955 | 981.19 | 9.95
313.15 K, x1 = 0.4929 | 973.92 | 11.79
313.15 K, x1 = 0.5995 | 966.3 | 12.85
313.15 K, x1 = 0.7002 | 959.83 | 13.14
313.15 K, x1 = 0.8006 | 954.01 | 13.56
313.15 K, x1 = 0.8992 | 949.12 | 12.83
313.15 K, x1 = 1 | 944.42 | 12.51
323.15 K, x1 = 0.05 | 987.66 | 1.136
323.15 K, x1 = 0.07 | 987.41 | 1.393
323.15 K, x1 = 0.0986 | 988.2 | 1.561
323.15 K, x1 = 0.1993 | 986.18 | 3.582
323.15 K, x1 = 0.3003 | 980.32 | 5.59
323.15 K, x1 = 0.3955 | 973.13 | 6.649
323.15 K, x1 = 0.4929 | 965.84 | 7.64
323.15 K, x1 = 0.5995 | 958.38 | 7.994
323.15 K, x1 = 0.7002 | 951.77 | 8.473
323.15 K, x1 = 0.8006 | 945.87 | 8.748
323.15 K, x1 = 0.8992 | 940.96 | 8.041
323.15 K, x1 = 1 | 936.19 | 7.543
333.15 K, x1 = 0.05 | 982.03 | 0.929
333.15 K, x1 = 0.07 | 981.49 | 1.118
333.15 K, x1 = 0.0986 | 981.57 | 1.222
333.15 K, x1 = 0.1993 | 978.5 | 2.627
333.15 K, x1 = 0.3003 | 972.15 | 3.944
333.15 K, x1 = 0.3955 | 964.88 | 4.988
333.15 K, x1 = 0.4929 | 957.68 | 5.701
333.15 K, x1 = 0.5995 | 950.15 | 6.163
333.15 K, x1 = 0.7002 | 943.53 | 5.753
333.15 K, x1 = 0.8006 | 937.62 | 6.023
333.15 K, x1 = 0.8992 | 932.66 | 5.483
333.15 K, x1 = 1 | 927.84 | 5.22
343.15 K, x1 = 0.05 | 975.62 | 0.775
343.15 K, x1 = 0.07 | 974.99 | 0.922
343.15 K, x1 = 0.0986 | 973.44 | 0.993
343.15 K, x1 = 0.1993 | 970.55 | 2.088
343.15 K, x1 = 0.3003 | 963.77 | 2.904
343.15 K, x1 = 0.3955 | 956.45 | 3.619
343.15 K, x1 = 0.4929 | 949.25 | 4.075
343.15 K, x1 = 0.5995 | 941.71 | 4.371
343.15 K, x1 = 0.7002 | 935.09 | 4.565
343.15 K, x1 = 0.8006 | 929.19 | 4.467
343.15 K, x1 = 0.8992 | 924.2 | 3.927
343.15 K, x1 = 1 | 919.37 | 3.77
